In patent US20210322443A1 (MAPREG, priority 2015, published 2021):

Assays:
[1] = Blood parameters before and after MAP4343 treatment; type: in vivo, Wistar rats; conditions: dependent and non-dependent rats, pre/post treatment, 10 mg/kg sub-cutaneously, FIGS. 4 to 17
Method: Blood samples were obtained before and after completion of the treatment with MAP4343 using retro-orbital sampling. Blood, serum and plasma were collected and analyzed using standard procedures to evaluate blood count panel, blood urea nitrogen, cholesterol, creatinine, T3, T4 and protein electrophoresis.
Data were analyzed by appropriate mixed factorial ANOVA, followed Newman Keuls post hoc tests

[2] = target: T1, human progesterone receptor(PR) (Homo sapiens, UniProt P06401); assay: Progesterone receptor antagonist transactivation test (progesterone 1 nM) in transfected HEK293T cells; type: cell-based; conditions: with progesterone 1 nM, increasing amounts, FIG. 2
T1 construct: expressed in transfected cells; host or cells: HEK293T
T1 sequence (P06401 1-933): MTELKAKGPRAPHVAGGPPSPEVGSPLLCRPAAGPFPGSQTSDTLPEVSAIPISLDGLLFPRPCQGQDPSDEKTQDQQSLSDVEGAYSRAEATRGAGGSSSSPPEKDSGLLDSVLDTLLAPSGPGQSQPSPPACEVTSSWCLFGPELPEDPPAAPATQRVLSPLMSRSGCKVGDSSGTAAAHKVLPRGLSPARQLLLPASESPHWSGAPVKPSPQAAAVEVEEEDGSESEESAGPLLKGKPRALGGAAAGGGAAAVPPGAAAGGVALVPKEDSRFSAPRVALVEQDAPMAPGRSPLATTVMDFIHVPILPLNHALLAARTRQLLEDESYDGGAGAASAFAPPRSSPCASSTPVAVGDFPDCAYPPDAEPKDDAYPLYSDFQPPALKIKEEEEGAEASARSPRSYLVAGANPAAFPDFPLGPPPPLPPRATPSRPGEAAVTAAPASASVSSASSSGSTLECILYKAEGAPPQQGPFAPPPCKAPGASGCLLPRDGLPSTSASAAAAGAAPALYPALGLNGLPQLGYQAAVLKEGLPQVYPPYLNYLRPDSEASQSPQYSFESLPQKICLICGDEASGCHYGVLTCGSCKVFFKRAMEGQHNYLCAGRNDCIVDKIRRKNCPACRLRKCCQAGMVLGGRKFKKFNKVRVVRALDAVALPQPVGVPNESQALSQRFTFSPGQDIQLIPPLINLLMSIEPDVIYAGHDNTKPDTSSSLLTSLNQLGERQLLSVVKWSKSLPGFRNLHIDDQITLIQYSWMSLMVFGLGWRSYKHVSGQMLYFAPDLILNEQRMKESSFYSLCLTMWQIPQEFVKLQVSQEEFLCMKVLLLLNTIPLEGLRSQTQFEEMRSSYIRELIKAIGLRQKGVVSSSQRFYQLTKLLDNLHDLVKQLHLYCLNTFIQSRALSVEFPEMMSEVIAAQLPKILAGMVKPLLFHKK
Method: The main experimental setting used is the following: HEK293T cells were transiently transfected, using calcium phosphate precipitation technology, with expression vectors pSG5hPR (which permits expression of human progesterone receptor(PR)), pFC31-luc (contains the luciferase gene under the control of the MMTV promoter, which is in turn activated by binding of a progestin to progesterone receptor) and pcbetagal (which permits expression of betagalactosidase), and cultured during 24 hours with increasing amounts of various compositions: • 1. […] Test of progesterone receptor […] activity: transfected cells were cultured with progesterone (1 nM) and increasing amounts of RU486 (a well-known progesterone receptor antagonist) or 3-methoxy-pregnenolone. • With this setting, a compound with progesterone receptor antagonist activity competes with progesterone for the occupation of progesterone receptor and results in a progressive loss of transactivation activity when the amount of this compound is increased compared to progesterone.

[3] = target: purified tubulin and MAP2 (Homo sapiens, UniProt P11137); assay: Increase in optical density at 345 nm of purified tubulin and MAP2 (microtubule polymerization); type: biochemical; conditions: 37° C., GTP
Method: Activity is measured by the increase in optical density at 345 nm of a mixture of purified tubulin and MAP2, incubated at 37° C. in the presence of GTP.

Serotoninergic 5-HT2A = Serotoninergic 5-HT2A (Homo sapiens, UniProt P28223); assay: CNS receptor binding assay; conditions: [3H] ketanserin, Human recombinant (HEK-293 cells), read-out: % Inhibition of control specific binding
Serotoninergic 5-HT3 = Serotoninergic 5-HT3 (Homo sapiens, UniProt P46098); assay: CNS receptor binding assay; conditions: read-out: % Inhibition of control specific binding
[4] = test system: 80 different CNS neurotransmitters receptors; assay: Screen for in vitro affinity to 80 CNS receptors; type: binding; conditions: significant = inhibition higher than 50%

Sequence of Serotoninergic 5-HT2A (P28223 whole entry): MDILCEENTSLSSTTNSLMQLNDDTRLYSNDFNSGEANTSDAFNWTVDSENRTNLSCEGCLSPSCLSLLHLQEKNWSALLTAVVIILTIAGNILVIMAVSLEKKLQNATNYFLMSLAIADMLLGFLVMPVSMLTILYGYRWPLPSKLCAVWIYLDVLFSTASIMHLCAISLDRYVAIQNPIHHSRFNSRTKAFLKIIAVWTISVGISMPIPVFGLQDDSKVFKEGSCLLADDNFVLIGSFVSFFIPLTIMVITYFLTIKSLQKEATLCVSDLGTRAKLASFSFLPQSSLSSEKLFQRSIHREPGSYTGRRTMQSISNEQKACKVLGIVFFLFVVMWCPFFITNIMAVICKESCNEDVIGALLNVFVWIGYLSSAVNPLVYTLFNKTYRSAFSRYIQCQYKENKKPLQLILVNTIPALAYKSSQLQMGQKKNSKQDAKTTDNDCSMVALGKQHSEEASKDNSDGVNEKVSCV
Sequence of purified tubulin and MAP2 (P11137 whole entry): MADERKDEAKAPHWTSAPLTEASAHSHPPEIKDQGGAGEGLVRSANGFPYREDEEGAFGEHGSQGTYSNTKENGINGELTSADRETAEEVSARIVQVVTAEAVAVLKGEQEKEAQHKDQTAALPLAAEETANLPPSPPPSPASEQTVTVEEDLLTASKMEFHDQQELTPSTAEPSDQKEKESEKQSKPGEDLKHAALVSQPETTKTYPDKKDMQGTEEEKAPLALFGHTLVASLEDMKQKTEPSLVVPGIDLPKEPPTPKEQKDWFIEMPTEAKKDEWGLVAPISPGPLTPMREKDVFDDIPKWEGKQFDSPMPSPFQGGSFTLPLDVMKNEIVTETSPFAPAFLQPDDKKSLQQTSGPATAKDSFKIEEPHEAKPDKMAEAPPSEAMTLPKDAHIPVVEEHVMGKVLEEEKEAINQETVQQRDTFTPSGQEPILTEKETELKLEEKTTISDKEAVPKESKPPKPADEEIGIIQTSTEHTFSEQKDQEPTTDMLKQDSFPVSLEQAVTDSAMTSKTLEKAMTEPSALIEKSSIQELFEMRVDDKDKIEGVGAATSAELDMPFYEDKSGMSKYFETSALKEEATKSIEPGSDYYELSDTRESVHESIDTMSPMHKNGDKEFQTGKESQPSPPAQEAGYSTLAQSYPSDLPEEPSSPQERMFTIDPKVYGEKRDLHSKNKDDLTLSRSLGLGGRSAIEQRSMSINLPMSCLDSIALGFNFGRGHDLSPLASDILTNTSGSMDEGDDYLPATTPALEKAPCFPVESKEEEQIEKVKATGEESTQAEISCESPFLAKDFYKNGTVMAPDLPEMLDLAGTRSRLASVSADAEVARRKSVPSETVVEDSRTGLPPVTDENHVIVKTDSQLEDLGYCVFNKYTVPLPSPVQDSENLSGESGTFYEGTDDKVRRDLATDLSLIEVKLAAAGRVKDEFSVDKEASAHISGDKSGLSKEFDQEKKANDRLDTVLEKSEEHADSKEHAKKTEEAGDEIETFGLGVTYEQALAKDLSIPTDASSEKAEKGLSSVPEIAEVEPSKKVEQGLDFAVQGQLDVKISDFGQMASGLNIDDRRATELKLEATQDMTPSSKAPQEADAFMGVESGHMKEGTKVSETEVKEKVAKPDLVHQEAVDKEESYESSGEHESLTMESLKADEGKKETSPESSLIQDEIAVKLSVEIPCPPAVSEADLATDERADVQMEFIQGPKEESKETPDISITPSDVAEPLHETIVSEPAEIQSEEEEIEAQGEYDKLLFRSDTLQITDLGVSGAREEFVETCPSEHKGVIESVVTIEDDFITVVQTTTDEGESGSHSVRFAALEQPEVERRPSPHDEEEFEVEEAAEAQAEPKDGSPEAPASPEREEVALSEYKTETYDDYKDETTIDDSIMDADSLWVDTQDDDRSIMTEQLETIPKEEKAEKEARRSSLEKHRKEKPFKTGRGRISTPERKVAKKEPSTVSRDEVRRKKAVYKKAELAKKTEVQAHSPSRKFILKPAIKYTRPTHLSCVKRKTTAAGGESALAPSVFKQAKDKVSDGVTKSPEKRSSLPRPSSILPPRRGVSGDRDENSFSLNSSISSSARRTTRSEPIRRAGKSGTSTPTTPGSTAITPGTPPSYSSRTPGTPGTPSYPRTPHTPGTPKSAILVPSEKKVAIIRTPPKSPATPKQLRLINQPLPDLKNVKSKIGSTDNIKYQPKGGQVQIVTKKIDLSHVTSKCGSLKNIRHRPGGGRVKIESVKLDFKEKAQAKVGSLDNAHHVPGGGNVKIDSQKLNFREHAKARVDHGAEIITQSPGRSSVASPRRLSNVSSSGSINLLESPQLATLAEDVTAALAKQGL
Sequence of Serotoninergic 5-HT3 (P46098 24-478): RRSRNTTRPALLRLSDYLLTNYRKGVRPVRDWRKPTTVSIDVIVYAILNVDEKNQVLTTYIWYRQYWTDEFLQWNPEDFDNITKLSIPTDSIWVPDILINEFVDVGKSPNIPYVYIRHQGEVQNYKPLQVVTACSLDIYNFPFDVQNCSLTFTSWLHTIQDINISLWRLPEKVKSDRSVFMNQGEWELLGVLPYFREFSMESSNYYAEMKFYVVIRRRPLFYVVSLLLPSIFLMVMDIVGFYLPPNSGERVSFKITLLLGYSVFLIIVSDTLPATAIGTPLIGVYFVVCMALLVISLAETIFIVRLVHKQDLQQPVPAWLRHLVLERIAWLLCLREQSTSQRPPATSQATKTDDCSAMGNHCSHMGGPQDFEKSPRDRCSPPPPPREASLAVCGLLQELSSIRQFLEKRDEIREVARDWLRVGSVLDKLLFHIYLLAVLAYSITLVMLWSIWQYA

CO[C@H]1CC[C@@]2(C)C(=CC[C@H]3[C@@H]4CC[C@H](C(C)=O)[C@@]4(C)CC[C@@H]32)C1 [MAP4343, 3β-methoxy-pregna-5-ene-20-one]
effect on blood parameters (blood count panel, blood urea nitrogen, cholesterol, creatinine, T3, T4, protein electrophoresis) [1]: no significant effects of dependence or treatment on any of the blood parameters investigated | progesterone receptor antagonist activity [2]: weak progesterone receptor antagonist | Activity (percent of PREG) [3]: 100% of PREG | inhibition at 10 µM (Serotoninergic 5-HT2A): 1% | inhibition at 10 µM (Serotoninergic 5-HT3): 10% | in vitro affinity for any tested receptor [4]: no significant affinity for any tested receptor
